Data as given in the supplement of paper PMC11208160.

Assay: recombinant UMI read abundance after kanamycin selection (control-corrected) (log10(CPM+1)); higher = more efficient recombination; extreme values may be limits of the assay; sequences stand for … in AGTGCAGAGAAAATCGGCCAGTTTTCTCTGCCTGCAGTCCGCATGCCGTGGGACCCCTTGGGTTCTAACCTGTTGCCTAGATTTATGCAGCGGACTGCCTTTCTCCCAAAGTGATAAACCGG…AGGTTGGTTTCACT; site = the 11-nt donor
Description: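 Pooled E. coli donor-specificity screen for the IS621 bridge recombinase. Each library member carries a reprogrammed 11-nt donor and a full-length LE bridge RNA expressed in cis from the natural promoter, with a paired donor-binding loop (8-nt LDG + 4-nt RDG) and a target-binding loop fixed to T5. It is co-electroporated with a T5 target plasmid; recombinase is induced with 0.07 mM IPTG and recombinants are selected on kanamycin. UMIs are counted as CPM, averaged over two biological replicates and corrected by the unselected control. Molecule = full bridge RNA written as DNA, built from the T5 scaffold: LDG = donor specificity nt 1-8, RDG = reverse complement of nt 8-11.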
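Note: IS621 bridge recombinase in Escherichia coli cells against a fixed T5 target plasmid.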

In order of falling “recombinant UMI read abundance (log10)” value:
1. ACACCCTCATGGACCGGTTTTCCCGGTAATCCGTATTTGAC (site ACACCCTCTGT)  3.42
2. ACACCGTCATGGACCGGTTTTCCCGGTAATCCGTATTTGCC (site ACACCGTCTGG)  3.04
3. ACACTATCATGGACCGGTTTTCCCGGTAATCCGTATTTGTA (site ACACTATCTTA)  2.98
4. ACACCATCATGGACCGGTTTTCCCGGTAATCCGTATTTGCA (site ACACCATCTTG)  2.8
5. ACACGAACATGGACCGGTTTTCCCGGTAATCCGTATTTGGC (site ACACGAACTGC)  2.77
6. ACACGAACATGGACCGGTTTTCCCGGTAATCCGTATTTGTA (site ACACGAACTTA)  2.52
7. ACACGATCATGGACCGGTTTTCCCGGTAATCCGTATTTGTC (site ACACGATCTGA)  2.46
8. ACAAGGACATGGACCGGTTTTCCCGGTAATCCGTATTTGTT (site ACAAGGACTAA)  2.32
9. ACACTAACATGGACCGGTTTTCCCGGTAATCCGTATTTGTC (site ACACTAACTGA)  2.12
10. ACACGAACATGGACCGGTTTTCCCGGTAATCCGTATTTGGC (site ACACGAACTGT)  1.93
11. ACACGAACATGGACCGGTTTTCCCGGTAATCCGTATTTGTA (site ACACGAACTGA)  1.52
12. ACACATCCATGGACCGGTTTTCCCGGTAATCCGTATTTGGC (site ACACATCCTGC)  1.5
13. ACACCATCATGGACCGGTTTTCCCGGTAATCCGTATTTGAG (site ACACCATCTCT)  1.25
14. ACACATCCATGGACCGGTTTTCCCGGTAATCCGTATTTGAC (site ACACATCCTGT)  1.22
15. ACACCATCATGGACCGGTTTTCCCGGTAATCCGTATTTGCA (site ACAGTATCTTG)  1.21
16. ACACATCCATGGACCGGTTTTCCCGGTAATCCGTATTTGGC (site ACACATCCTGT)  1.19
17. ACACGAACATGGACCGGTTTTCCCGGTAATCCGTATTTGGC (site ACACGAACTGA)  1.19
18. AATTATGCATGGACCGGTTTTCCCGGTAATCCGTATTTGTA (site AATTATGCTTA)  1.02
19. ACACGTCCATGGACCGGTTTTCCCGGTAATCCGTATTTGAC (site ACACGTCCTGT)  0.959
20. ACACTAACATGGACCGGTTTTCCCGGTAATCCGTATTTGTC (site ACACCAACTGA)  0.94
21. ACACATCCATGGACCGGTTTTCCCGGTAATCCGTATTTGAC (site ACACCTCCTGT)  0.91
22. ACACATCCATGGACCGGTTTTCCCGGTAATCCGTATTTGAC (site ACACATTCTGT)  0.87
23. ACACATCCATGGACCGGTTTTCCCGGTAATCCGTATTTGAC (site ACACGTCCTGT)  0.84
24. ACACATCCATGGACCGGTTTTCCCGGTAATCCGTATTTGAC (site ACATATCCTGT)  0.818
25. ACACGAACATGGACCGGTTTTCCCGGTAATCCGTATTTGTA (site ACACGAACTCA)  0.747
26. AATTGGGCATGGACCGGTTTTCCCGGTAATCCGTATTTGAT (site AATTGGGCTAT)  0.68
27. ACACATCCATGGACCGGTTTTCCCGGTAATCCGTATTTGAC (site CCACATCCTGT)  0.581
28. ACACATCCATGGACCGGTTTTCCCGGTAATCCGTATTTGAC (site TCACATCCTGT)  0.538
29. AATTTGTCATGGACCGGTTTTCCCGGTAATCCGTATTTGAT (site AATTTGTCTAT)  0.517
30. ACACATCCATGGACCGGTTTTCCCGGTAATCCGTATTTGAC (site ACACACCCTGT)  0.501
31. ACACATCCATGGACCGGTTTTCCCGGTAATCCGTATTTGAC (site ACACATACTGT)  0.457
32. ACACATCCATGGACCGGTTTTCCCGGTAATCCGTATTTGAC (site ACACAGCCTGT)  0.424
33. ACACATCCATGGACCGGTTTTCCCGGTAATCCGTATTTGAC (site ACACATCCTTT)  0.421
34. ACACGATCATGGACCGGTTTTCCCGGTAATCCGTATTTGTC (site ACACGAACTGA)  0.373
35. ACACATCCATGGACCGGTTTTCCCGGTAATCCGTATTTGAC (site ACACATCCTCT)  0.265
36. AATTTGGCATGGACCGGTTTTCCCGGTAATCCGTATTTGTG (site TATTTGGCTCA)  0.187
37. AATTTGGCATGGACCGGTTTTCCCGGTAATCCGTATTTGTG (site AATTTGGCTCA)  0.122
38. ACACATCCATGGACCGGTTTTCCCGGTAATCCGTATTTGAC (site ACACATCCTAT)  0.0886
39. AATTATGCATGGACCGGTTTTCCCGGTAATCCGTATTTGTA (site AATTATGCTTT)  0.0175
40. ACACGAACATGGACCGGTTTTCCCGGTAATCCGTATTTGTA (site ACACGAACTAA)  0.0114
41. AATTATGCATGGACCGGTTTTCCCGGTAATCCGTATTTGTA (site AATTATGCTTC)  0.0111
42. AATTTGGCATGGACCGGTTTTCCCGGTAATCCGTATTTGTG (site GATTTGGCTCA)  0.011
43. AATTTGGCATGGACCGGTTTTCCCGGTAATCCGTATTTGTG (site CATTTGGCTCA)  0.00721
44. AATTATGCATGGACCGGTTTTCCCGGTAATCCGTATTTGTA (site AATTATGCTTG)  0.00449
45. ACAAGTCCATGGACCGGTTTTCCCGGTAATCCGTATTTGTC (site ACAAGTCCTGA)  0
46. ACACAGCCATGGACCGGTTTTCCCGGTAATCCGTATTTGTC (site ACACAGCCTGA)  0
47. ACACATCCATGGACCGGTTTTCCCGGTAATCCGTATTTGAC (site AAACATCCTGT)  0
48. ACACATCCATGGACCGGTTTTCCCGGTAATCCGTATTTGAC (site ACAAATCCTGT)  0
49. ACACATCCATGGACCGGTTTTCCCGGTAATCCGTATTTGAC (site ACACAACCTGT)  0
50. ACACATCCATGGACCGGTTTTCCCGGTAATCCGTATTTGAC (site ACACATCCTGA)  0
51. ACACATCCATGGACCGGTTTTCCCGGTAATCCGTATTTGAC (site ACACATCCTGC)  0
52. ACACATCCATGGACCGGTTTTCCCGGTAATCCGTATTTGAC (site ACACATCCTGG)  0
53. ACACATCCATGGACCGGTTTTCCCGGTAATCCGTATTTGAC (site ACACATGCTGT)  0
54. ACACATCCATGGACCGGTTTTCCCGGTAATCCGTATTTGAC (site ACACTTCCTGT)  0
55. ACACATCCATGGACCGGTTTTCCCGGTAATCCGTATTTGAC (site ACAGATCCTGT)  0
56. ACACATCCATGGACCGGTTTTCCCGGTAATCCGTATTTGAC (site ACCCATCCTGT)  0
57. ACACATCCATGGACCGGTTTTCCCGGTAATCCGTATTTGAC (site ACGCATCCTGT)  0
58. ACACATCCATGGACCGGTTTTCCCGGTAATCCGTATTTGAC (site ACTCATCCTGT)  0
59. ACACATCCATGGACCGGTTTTCCCGGTAATCCGTATTTGAC (site AGACATCCTGT)  0
60. ACACATCCATGGACCGGTTTTCCCGGTAATCCGTATTTGAC (site ATACATCCTGT)  0
61. ACACATCCATGGACCGGTTTTCCCGGTAATCCGTATTTGAC (site GCACATCCTGT)  0
62. ACACATCCATGGACCGGTTTTCCCGGTAATCCGTATTTGGC (site ACACATCCTGA)  0
63. ACACATCCATGGACCGGTTTTCCCGGTAATCCGTATTTGGC (site ACACATCCTGG)  0
64. ACACGAACATGGACCGGTTTTCCCGGTAATCCGTATTTGGC (site ACACGAACTGG)  0
65. ACACGATCATGGACCGGTTTTCCCGGTAATCCGTATTTGTC (site ACACGACCTGA)  0
66. ACACGATCATGGACCGGTTTTCCCGGTAATCCGTATTTGTC (site ACACGAGCTGA)  0
67. ACACGTCCATGGACCGGTTTTCCCGGTAATCCGTATTTGAC (site ACACATCCTGT)  0
68. ACACGTCCATGGACCGGTTTTCCCGGTAATCCGTATTTGAC (site ACACCTCCTGT)  0
69. ACACGTCCATGGACCGGTTTTCCCGGTAATCCGTATTTGAC (site ACACTTCCTGT)  0
70. ACACTAACATGGACCGGTTTTCCCGGTAATCCGTATTTGTC (site ACACAAACTGA)  0
71. ACACTAACATGGACCGGTTTTCCCGGTAATCCGTATTTGTC (site ACACGAACTGA)  0
72. ACACTATCATGGACCGGTTTTCCCGGTAATCCGTATTTGTA (site ACAGTATCTTG)  0
